Measurements as given in patent US20260166159A1, “KRAS G12D DEGRADATION AGENT, AND PREPARATION METHOD AND USE THEREFOR” (LEADINGTAC PHARMACEUTICAL (SHAOXING) CO., LTD., priority 2022, published 2026).
pIC50: −log10 of the molar value.

Tests used:
KRAS-G12D [1] = molecular target: T1, KRAS-G12D (Homo sapiens, UniProt P01116, G12D); experiment: KRAS-G12D degradation assay (Western Blot), A-427 cells; assay type: cell-based; conditions: A427 cells, 24 h; for Dmax: A-427
T1 construct: endogenous in cells; host or cells: A-427 (ATCC), AGS, AsPc-1, Panc 04.03
Summary of the method: (§1)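 Western blotting of lysates (5 μg protein) quantified KRAS against a β-actin reference after 24 h exposure to compound at final 0.03–3000 nM in 0.25% DMSO. Cells were A-427, AGS, AsPc-1 or Panc 04.03, all KRAS G12D, at 5×10^5/well. Degradation versus control yielded DC50 and Dmax.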

KRAS-G12D [2] = molecular target: T1, KRAS-G12D; experiment: KRAS-G12D degradation assay (Western Blot), AGS cells; assay type: cell-based; conditions: 24 h
Experimental: (§2) The degradation effects of the compounds on KRAS-G12D were investigated on KRAS G12D mutant human lung cancer cell A-427 (ATCC), KRAS G12D mutant human gastric cancer cell AGS, KRAS G12D mutant human metastatic pancreatic cancer cell AsPc-1, and KRAS G12D mutant human pancreatic adenocarcinoma cell Panc 04.03. The specific procedures were as follows: 0.95 mL of cells were seeded into each well of a 24-well cell culture plate to achieve a cell density of 5×10^5 cells/well; and the cell plate was incubated in an incubator at 37° C. with 5% CO2 overnight. Then 50 μL of the compound solution after dilution was added to each of the wells with the corresponding cells, so that the final concentration of the compound was in a range of 0.03-3000 nM. The final concentration of DMSO was 0.25%. After the compounds were added, the cell plate was incubated in the incubator at 37° C. with 5% CO2 for 24 h. The culture medium in the 24-well cell culture plate was removed, and the plate was washed twice with 1×PBS (KeyGEN). 120 μL of RIPA (strong) lysis buffer (Beyotime) supplemented with 1 mM phenylmethylsulfonyl fluoride, a protease inhibitor mixture (Beyotime), and a protease phosphatase inhibitor mixture (Beyotime) was added to lyse adherent A-427 cells at the bottom of the cell culture plate. After the plate was left to stand on ice for 30 min, the protein lysate in each well was transferred to a 1.5 mL centrifuge tube and centrifuged at 15000 g for 20 min at 4° C. The cell lysate supernatants after centrifugation were cryopreserved in a refrigerator at −80° C. for later use.
(§3) After the samples of the cell lysate supernatants that had been prepared were thawed from the refrigerator at −80° C., the total protein concentrations of the cell lysates were determined using a BCA protein quantification kit (Tiangen). The total protein concentrations of the samples were then adjusted to 0.5 μg/μL with PBS and 5×SDS-PAGE protein loading buffer (Beyotime), and the samples were incubated in a water bath at 100° C. for 15 min. The samples were then incubated in an ice bath for 5 min and centrifuged at 14000 g for 1 min at 4° C., and the supernatants were mixed well as loading samples for the Western Blot assay. The samples were loaded into wells of a 10% precast gel (KeyGEN) with a loading volume of 10 μL (total protein: 5 μg), a sufficient Tris-MOPS-SDS running buffer (Adamas) was added, and then electrophoresis was performed at a constant voltage of 120 V for 55 min. After the electrophoresis, the proteins on the gel were transferred to PVDF membranes at a constant current of 250 mA for 55 min. After the membrane transfer, the PVDF membranes were incubated in 1× Quick Block blocking buffer (Beyotime) at room temperature for 30 min. After the blocking, the PVDF membranes were separately incubated at 4° C. overnight with the KRAS antibody (Abcam) diluted in a ratio of 1:1000 and the […] antibody (Abcam) diluted in a ratio of 1:2000 in 5% BSA as the diluent, and then washed with 1×TBST buffer (2.4 g of Tris, 8.8 g of NaCl, 1.5 mL of Tween 20, with pH adjusted to 7.4, with the volume brought to 1 L) 3 times for 10 min/time. The membranes were incubated with a secondary antibody (Abcam) diluted in 5% BSA at room temperature for 2 h, and then washed with 1×TBST buffer 3 times for 10 min/time. Finally, the membranes were incubated with Clarity Western ECL Substrate (BIO-RAD) for 5 min for luminescence and color development, and a ChemiScope 6200 Touch chemiluminescence imaging system (Clinx) was used for color development and protein mapping. Gray value analysis of the protein maps was performed using the chemiluminescence analysis software (Clinx). The gray correction value for each sample was calculated using the formula: gray correction value=(gray value of target protein/gray value of corresponding internal reference)×10^3. Then degradation rates were calculated by comparison with the gray correction value of the control group. […]

KRAS-G12D [3] = molecular target: T1, KRAS-G12D; experiment: KRAS-G12D degradation assay (Western Blot), AsPc-1 cells; assay type: cell-based; conditions: for DC50: 24 h; for Dmax: ASPC1, 24 h
Summary of the method: as §1

KRAS-G12D [4] = molecular target: T1, KRAS-G12D; experiment: KRAS-G12D degradation assay (Western Blot), Panc 04.03 cells; assay type: cell-based; conditions: 24 h
Experimental: as §2, §3

[5] = tested on: KRAS G12D mutant human lung cancer cell A427; experiment: 3D cell proliferation inhibition assay, A427; assay type: cell-based; conditions: A-427, 168 h, A427, 7 days, CTG
Summary of the method: (§4)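 For this 7-day anchorage-independent assay, 5×10^2 cells per well were exposed to 10000–0.026 nM test compound with 0.2% DMSO at 37 °C. ATP-based luminescence (CTG) gave viability, and percent inhibition versus DMSO controls was curve-fitted to obtain IC50.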

[6] = tested on: KRAS G12D mutant human gastric cancer cell AGS; experiment: 3D cell proliferation inhibition assay, AGS; assay type: cell-based; conditions: 168 h, 7 days, CTG
Summary of the method: as §4

[7] = tested on: KRAS G12D mutant human metastatic pancreatic cancer cell AsPc-1; experiment: 3D cell proliferation inhibition assay, AsPc-1; assay type: cell-based; conditions: ASPC1, 168 h, AsPc-1, 7 days, CTG, numeric values
Summary of the method: as §4

[8] = tested on: KRAS G12D mutant human pancreatic cancer cell Panc 04.03; experiment: 3D cell proliferation inhibition assay, Panc 04.03; assay type: cell-based; conditions: 168 h, Panc 04.03, 7 days, CTG, numeric values
Summary of the method: as §4

[9] = tested on: KRAS G12D mutant human pancreatic cancer cell HPAC; experiment: 3D cell proliferation inhibition assay, HPAC; assay type: cell-based; conditions: 168 h, 7 days, CTG
Summary of the method: as §4

[10] = molecular target: T2, Human KRAS G12D 6His-tagged (Homo sapiens, UniProt P01116, G12D); experiment: KRAS-G12D/GTP binding assay (HTRF); conditions: class symbols
T2 construct: purchased PerkinElmer
Summary of the method: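 Compounds at 0.02-5000 nM final (0.5% DMSO) were tested for blocking GTP Red tracer binding to His-tagged KRAS G12D, detected by Eu-cryptate anti-His antibody after 1 h, 25° C. Inhibition taken from 665/620 nm ratio relative to control, then fitted to give IC50.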

T1 sequence (P01116 1-188 isoform P01116-2 G12D): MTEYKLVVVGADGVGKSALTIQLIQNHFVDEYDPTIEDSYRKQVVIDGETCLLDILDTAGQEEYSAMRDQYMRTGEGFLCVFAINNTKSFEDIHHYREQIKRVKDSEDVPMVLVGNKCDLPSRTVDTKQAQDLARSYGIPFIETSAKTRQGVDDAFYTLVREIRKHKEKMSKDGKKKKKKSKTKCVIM
T2 sequence (P01116 1-188 isoform P01116-2 G12D): as above

| SMILES | DC50 (KRAS-G12D [1]; numeric values) [nM] | Dmax (KRAS-G12D [1]; numeric values) [%] | DC50 (KRAS-G12D [2]) [nM] | Dmax (KRAS-G12D [2]) [%] | DC50 (KRAS-G12D [3]) [nM] | Dmax (KRAS-G12D [3]) [%] | DC50 (KRAS-G12D [4]) [nM] | Dmax (KRAS-G12D [4]) [%] | pIC50 ([5]; numeric values) | pIC50 ([6]; numeric values) | pIC50 [7] | pIC50 [8] | pIC50 [9] | pIC50 [10] | DC50 (KRAS-G12D [1]; class symbols) [nM] | Dmax (KRAS-G12D [1]; class symbols) [%] | pIC50 ([5]; class symbols) | pIC50 ([6]; class symbols) |
| --- | --- | --- | --- | --- | --- | --- | --- | --- | --- | --- | --- | --- | --- | --- | --- | --- | --- | --- |
| CCc1c(F)ccc2cc(O)cc(-c3ccc4c(N5CC6CCC(C5)N6)nc(OCC5(CN6CCN(CC7CCC8(CC7)CCN(C(=O)c7ccc(C)c(N9CCC(=O)NC9=O)c7)CC8)CC6)CC5)nc4c3F)c12 [Example 75, 1-(5-(9-((4-((1-(((4-(3,8-diazabicyclo[3.2.1]octan-3-yl)-7-(8-ethyl-7-fluoro-3-hydroxynaphthalen-1-yl)-8-fluoroquinazolin-2-yl)oxy)methyl)cyclopropyl)methyl)piperazin-1-yl)methyl)-3-azaspiro[5.5]undecane-3-carbonyl)-2-methylphenyl)dihydropyrimidine-2,4(1H,3H)-dione] | 4.13 | 83.8 | 57.8 | 89.2 | 8.79 | 99.5 | 9.38 | 92 | 7.06 | 8.04 | 7.83 | 7.08 | 7.95 |  |  |  |  |  |
| C#Cc1cccc2cc(O)cc(-c3ccc4c(N5CC6CCC(C5)N6)nc(OCC5(CN6CCN(CC7CCC8(CC7)CCN(C(=O)c7ccc(Cl)c(N9CCC(=O)NC9=O)c7)CC8)CC6)CC5)nc4c3F)c12 [Example 78, 1-(5-(9-((4-((1-(((4-(3,8-diazabicyclo[3.2.1]octan-3-yl)-7-(8-ethynyl-3-hydroxynaphthalen-1-yl)-8-fluoroquinazolin-2-yl)oxy)methyl)cyclopropyl)methyl)piperazin-1-yl)methyl)-3-azaspiro[5.5]undecane-3-carbonyl)-2-chlorophenyl)dihydropyrimidine-2,4(1H,3H)-dione] | 10.1 | 70.2 | 28.9 | 92.6 | 23.7 | 100 | 16.3 | 100 | 7.79 | 8.03 | 7.77 | 7.42 | 7.73 |  |  |  |  |  |
| C#Cc1cccc2cc(O)cc(-c3ncc4c(N5CC6CCC(C5)N6)nc(OCC5(CN6CCN(CC7CCC8(CC7)CCN(C(=O)c7ccc(C)c(N9CCC(=O)NC9=O)c7)CC8)CC6)CC5)nc4c3F)c12 [Example 55, 1-(5-(9-((4-((1-(((4-(3,8-diazabicyclo[3.2.1]octan-3-yl)-7-(8-ethynyl-3-hydroxynaphthalen-1-yl)-8-fluoropyrido[4,3-d]pyrimidin-2-yl)oxy)methyl)cyclopropyl)methyl)piperazin-1-yl)methyl)-3-azaspiro[5.5]undecane-3-carbonyl)-2-methylphenyl)dihydropyrimidine-2,4(1H,3H)-dione] |  |  | 1.91 | 99.2 | 11.1 | 95.2 | 4.08 | 98.6 |  |  |  |  | 8.37 | ≥ 7.30 | ≤ 50 | 80 to 100 | ≥ 7.30 | ≥ 7.30 |
| Cc1ccc(C(=O)N2CCC3(CCC(CN4CCN(CC5(COc6nc(N7CC8CCC(C7)N8)c7cnc(-c8cc(O)cc(Cl)c8C8CC8)c(F)c7n6)CC5)CC4)CC3)CC2)cc1N1CCC(=O)NC1=O [Example 81, 1-(5-(9-((4-((1-(((4-(3,8-diazabicyclo[3.2.1]octan-3-yl)-7-(3-chloro-2-cyclopropyl-5-hydroxyphenyl)-8-fluoropyrido[4,3-d]pyrimidin-2-yl)oxy)methyl)cyclopropyl)methyl)piperazin-1-yl)methyl)-3-azaspiro[5.5]undecane-3-carbonyl)-2-methylphenyl)dihydropyrimidine-2,4(1H,3H)-dione] | 16.8 | 76.5 | 2.99 | 80.3 | 17.8 | 98.2 |  |  | 7.17 | 8.26 | 7.89 | 7.56 | 8.36 |  |  |  |  |  |
| C#Cc1c(F)ccc2cc(O)cc(-c3ncc4c(N5CC6CCC(C5)N6)nc(OC[C@H](C)CN5CCN(CC6CCC7(CC6)CCN(C(=O)c6ccc(OC)c(N8CCC(=O)NC8=O)c6)CC7)CC5)nc4c3F)c12 [Example 90] | 0.86 | 95.6 | 10.6 | 98.9 | 1.87 | 100 |  |  | 7.55 | 9.19 | 8.92 | 8.05 | 8.61 |  |  |  |  |  |
| [2H]C([2H])([2H])c1ccc(C(=O)N2CCC3(CCC(CN4CCN(C[C@@H](C)COc5nc(N6CC7CCC(C6)N7)c6cnc(-c7cc(O)cc8ccc(F)c(C#C)c78)c(F)c6n5)CC4)CC3)CC2)cc1N1CCC(=O)NC1=O [Example 109, 1-(5-(9-((4-((R)-3-((4-(3,8-diazabicyclo[3.2.1]octan-3-yl)-7-(8-ethynyl-7-fluoro-3-hydroxynaphthalen-1-yl)-8-fluoropyrido[4,3-d]pyrimidin-2-yl)oxy)-2-methylpropyl)piperazin-1-yl)methyl)-3-azaspiro[5.5]undecane-3-carbonyl)-2-(methyl-d3)phenyl)dihydropyrimidine-2,4(1H,3H)-dione] |  |  | 4.8 | 94.5 | 0.64 | 98.8 |  |  |  | 8.40 | 8.85 | 8.17 | 8.79 |  |  |  |  |  |
